Drawing on ChEMBL document CHEMBL3639225, “Perfluorinated cyclopropyl fused 1,3-oxazin-2-amine compounds as beta-secretase inhibitors and methods of use” (2015), this text covers IC50 for four compounds.

pIC50: −log10 of the molar value.

The pIC50 is the negative decadic logarithm of the IC50, by convention in mol/L.

Chain of Cathepsin D (P07339 65-162 limits assumed): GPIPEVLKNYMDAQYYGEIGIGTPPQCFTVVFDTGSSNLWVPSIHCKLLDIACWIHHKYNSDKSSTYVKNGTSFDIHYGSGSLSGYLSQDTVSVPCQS
Chain of Cathepsin D (P07339 169-412 limits assumed): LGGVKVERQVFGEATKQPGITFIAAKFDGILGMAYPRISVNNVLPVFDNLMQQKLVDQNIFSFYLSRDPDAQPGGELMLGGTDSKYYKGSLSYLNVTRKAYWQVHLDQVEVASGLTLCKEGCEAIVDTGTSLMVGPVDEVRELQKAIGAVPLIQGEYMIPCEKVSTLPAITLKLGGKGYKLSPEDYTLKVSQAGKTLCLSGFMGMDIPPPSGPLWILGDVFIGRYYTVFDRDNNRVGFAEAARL

This experiment addresses Cathepsin D (Homo sapiens, UniProt P07339). Put plainly: Fluorescence Resonance Energy Transfer Assay: Recombinant Cat D was expressed in CHO cells. The assay buffer for CathepsinD is 0.05 M citrate pH 3.5, 10% DMSO final, 5 mM CHAPS. The Cat D enzyme (9 nM) is pre-incubated for one hour with inhibitors, typically in about 1 uL of DMSO according to a serial dilution, is added thereto. The assays are effectively started by the addition of different FRET substrates (20 nM for Cat D) and the combination is incubated for one hour. The FRET assay is terminated with by addition of Tris buffer, which raises the pH to neutrality, and the fluorescence is determined. The FRET substrate is a peptide with commercially available fluorophore and quencher, on opposite sides of the BACE cleavage site. The Cat D substrate peptide sequence is based on sequence #1 of Table 1 from Gulnik et al. FEBS Letters v413 p379-384 1997. Proteolytic cleavage of the FRET substrate releases quenching of fluorescence (Cat D excitation 500 nm and emission 580 nm). Type of experiment: cell-based.
Take `NC1=N[C@](CF)(c2cc(NC(=O)c3ccc(Cl)cn3)cc(F)c2F)[C@H]2C[C@H]2O1`: the pIC50 is 3.64.

`NC1=N[C@@](c2cc(NC(=O)c3ncc(Br)cn3)ccc2F)(C(F)F)[C@H]2C[C@H]2O1`: the pIC50 is 2.99.

Regarding `Cc1cc(NC(=O)c2ccc(Cl)cc2CF)cc([C@@]2(C(F)F)N=C(N)O[C@@H]3C[C@@H]32)c1F`, the pIC50 is 3.77.

Turning to `NC1=N[C@](CF)(c2cc(NC(=O)c3ncc(Cl)cc3CO)ccc2Cl)[C@H]2C[C@H]2O1`, the pIC50 is 3.27.
